Reference: article PMC6193987, “Metagenomics reveals functional synergy and novel polysaccharide utilization loci in the Castor canadensis fecal microbiome” (The ISME Journal, 2018)

How the values were obtained:
12_J03-18 = assay: fluorogenic glycosidase kinetics; assay type: biochemical, uncultured bacterium (Castor canadensis fecal metagenome)
Source text: fluorogenic glycosidase kinetics on 12_J03-18

12_H03-13 = assay: fluorogenic glycosidase kinetics; assay type: biochemical, uncultured bacterium (Castor canadensis fecal metagenome); conditions: GH43 domain site
Source text: fluorogenic glycosidase kinetics on 12_H03-13

Km (12_J03-18): 480 ± 60 µM | Km (12_H03-13): 190 ± 30 µM | Km (12_H03-13; GH8 catalytic acid residue mutated): 140 ± 10 µM
Structure (SMILES): Cc1cc(=O)oc2cc(O[C@@H]3OC[C@@H](O)[C@H](O)[C@H]3O)c(Cl)cc12 [6-chloro-4-methylumbelliferyl β-D-xyloside]
